{
  "source": "patent US20230241185A1",
  "about": "“COMPOSITION COMPRISING A DNA-DEGRADING ENZYME FOR USE IN A METHOD FOR THE TREATMENT OF IMMUNOSUPPRESSION AFTER ACUTE TISSUE INJURY” (Klinikum der Universität München, priority 2020, published 2023)",
  "type_in_all_cases": "in vivo, mice",
  "key": {"splenic CD3^+ T cells [1]": {"system": "splenic CD3^+ T cells", "experiment": "Splenic T cell counts by FACS after burn injury", "conditions": "VX-765 100 mg kg^−1 i.p. 1 h prior to burn injury vs vehicle; normalized to sham", "method": "(§1) Male C57Bl/6J mice (Charles River, Freiburg, Germany), aged 7-8 weeks, received a 35% total body surface area (TBSA) full thickness scald burn to the back through 10 seconds immersion in 98° C. water under deep anesthesia with 2% isoflurane and analgesia with 0.1 mg kg^−1 buprenorphine. Immediately after burn injury, the mice were resuscitated with 2 ml of lactated Ringer's solution (Baxter, Unterschleißheim, Germany) via i.p. injection as previously described (Hundeshagen et al., 2018; Bohannon et al., 2008; Toliver-Kinsky et al., 2005). Animals in the sham burn group were subjected to identical treatment except for water temperature during immersion being 36 C. Following burn injury or sham burn, mice were singly housed at room temperature (21° C.). […]\n(§2) The anti-mouse antibodies listed below (see Table 1) were used for surface marker staining of CD45^+ leukocytes, CD45^+CD11b^+ monocytes (+FasL^+ expression), CD3^+ T cells, CD3^+CD4^+ Thelper cells, CD3^+CD8^+ Tcytotox cells and CD19^+ B cells (for representative gating strategy, see FIG. 10A). […] Flow cytometric data was acquired using a BD FACSverse flow cytometer (BD Biosciences) and analyzed using FlowJo software (Treestar)."}, "splenic CD3^+ T cells [2]": {"system": "splenic CD3^+ T cells", "experiment": "Splenic T cell counts by FACS after experimental stroke", "conditions": "VX-765 100 mg kg^−1 i.p. 1 h prior to stroke vs vehicle; normalized to sham", "description": "Mice were anaesthetized with isoflurane delivered in a mixture of 30% O2 and 70% N2O. An incision was made between the ear and the eye in order to expose the temporal bone. Mice were placed in supine position, and a laser Doppler probe was affixed to the skull above the middle cerebral artery (MCA) territory. The common carotid artery and left external carotid artery were exposed via midline incision and further isolated and ligated. A 2-mm silicon-coated filament (Doccol) was inserted into the internal carotid artery, advanced gently to the MCA until resistance was felt, and occlusion was confirmed by a corresponding decrease in blood flow (i.e., a decrease in the laser Doppler flow signal by 80%. After 60 minutes of occlusion, the animals were re-anesthetized, and the filament was removed. After recovery, the mice were kept in their home cage with ad libitum access to water and food. Sham-operated mice received the same surgical procedure, but the filament was […] in lieu of being advanced to the MCA. Body temperature was maintained at 37° C. throughout surgery in all mice via feedback-controlled heating pad. The overall mortality rate of animals subjected to MCA occlusion was approximately 20%. All animals in the sham group survived the procedure. Exclusion criteria: 1. Insufficient MCA occlusion (a reduction in blood flow to […] of the baseline value). 2. Death during the surgery. 3. Lack of brain ischemia as quantified post-mortem by histological analysis.\nAnti-IL1β: Mice received two injections of antagonizing anti-IL-1β in sterile saline (clone: B122, InVivoMab, BioXcell, US), 1 hour prior to and 1 hour after surgery. Anti-IL-1β or the corresponding IgG control (Armenian hamster IgG, InVivoMab, BioXcell, US) was injected i.p. at a dose of 4 mg kg^−1 body weight in a final volume of 200 μl.\nAnti-FasL: Mice received two injections of antagonizing anti-FasL in sterile saline (clone: MFL3, InVivoMab, BioXcell, US), 1 hour prior to and 1 hour after surgery. […]"}, "S. pneumoniae": {"system": "S. pneumoniae", "experiment": "Post-stroke intranasal bacterial infection, CFU burden in trachea", "conditions": "VX765 vs control; 10^6 CFU S. pneumoniae intranasally 12 h after stroke; CFU 14 h later", "description": "(§3) Mice were anaesthetized with isoflurane delivered in a mixture of 30% O2 and 70% N2O. An incision was made between the ear and the eye in order to expose the temporal bone. Mice were placed in supine position, and a laser Doppler probe was affixed to the skull above the middle cerebral artery (MCA) territory. The common carotid artery and left external carotid artery were exposed via midline incision and further isolated and ligated. […] Lack of brain ischemia as quantified post-mortem by histological analysis. […]\nS. pneumoniae TIGR4, an encapsulated strain of serotype 4, was grown overnight on Columbia blood agar plates (37° C., 5% CO2), single colonies were cultured in Todd-Hewitt broth with 1% yeast extract to mid-logarithmic phase (OD600 nm: 0.35), washed, and diluted in sterile PBS to the desired concentration. […] Serial dilutions of lung and tracheal tissue homogenates were plated onto blood agar plates and CFU were determined after 16 h of incubation."}, "K. pneumoniae": {"system": "K. pneumoniae", "experiment": "Post-stroke intranasal bacterial infection, CFU burden in lung", "conditions": "VX765 vs control; 2×10^5 CFU K. pneumoniae intranasally 12 h after stroke; CFU 14 h later"}, "CD45^+ splenocytes [3]": {"system": "CD45^+ splenocytes", "experiment": "CD45+ splenocyte counts (spleen cellularity) by FACS after experimental stroke", "conditions": "VX-765 100 mg kg^−1 i.p. 1 h prior to stroke vs vehicle; normalized to sham", "description": "as §3, §2"}, "[4]": {"experiment": "Infarct volumetry after stroke", "conditions": "VX-765 vs control treatment; 18 h after stroke", "description": "as §3\nMice were euthanized by overdose of ketamine-xylazine and perfused intracardially with normal saline. […] Infarct area of each section was assessed by ImageJ software (NIH). […] The total infarct volume was determined by integrating measured areas and distances between sections."}, "CD45^+ splenocytes [5]": {"system": "CD45^+ splenocytes", "experiment": "CD45+ splenocyte counts by FACS after burn injury", "conditions": "VX-765 100 mg kg^−1 i.p. 1 h prior to burn injury vs vehicle; normalized to sham", "method": "as §1, §2"}},
  "note": "Entries after “also recorded” stand apart in the source; their conditions may differ.",
  "data": [
    {"smiles": "CCO[C@@H]1OC(=O)C[C@@H]1NC(=O)[C@@H]1CCCN1C(=O)[C@@H](NC(=O)c1ccc(N)c(Cl)c1)C(C)(C)C", "note": "[VX-765, Belnacasan]", "values": [
      {"measurement": "splenic CD3+ T cell counts (survival)", "setting": "splenic CD3^+ T cells [1]", "result": "improved T cell survival; also recorded: improved survival after VX-765 treatment compared to control"},
      {"measurement": "splenic CD3+ T cell counts (survival)", "setting": "splenic CD3^+ T cells [2]", "result": "improved T cell survival; also recorded: improved survival after VX-765 treatment compared to control"},
      {"measurement": "bacterial load (CFU) in trachea", "setting": "S. pneumoniae", "result": "reduced post-injury bacterial load comparable to sham-operated group"},
      {"measurement": "bacterial load (CFU) in lung", "setting": "K. pneumoniae", "result": "reduced post-injury bacterial load comparable to sham-operated group"},
      {"measurement": "overall CD45+ splenocyte counts (spleen cellularity)", "setting": "CD45^+ splenocytes [3]", "result": "improved T cell survival and spleen cellularity; also recorded: improved survival after VX-765 treatment compared to control"},
      {"measurement": "infarct volume (primary lesion size)", "setting": "[4]", "result": "neither genetic nor pharmacological caspase-1 deficiency had a significant effect on the primary lesion size; also recorded: No significant difference in infarct volume between groups"},
      {"measurement": "overall CD45+ splenocyte counts (spleen cellularity)", "setting": "CD45^+ splenocytes [5]", "result": "improved T cell survival and spleen cellularity; also recorded: improved survival after VX-765 treatment compared to control"}
    ]}
  ]
}
